Experiment [1] deals with T1, recombinant human cGAS (aa147-522) (Homo sapiens, UniProt Q8N884).
T1 construct: recombinant human cGAS (aa147-522); His6-SUMO (N, cleaved yes); made in house; host or cells: E. coli BL21/pLys
Description: In vitro inhibition assay of cGAS activity (KinaseGlo, ATP consumption). The format is biochemical. Particulars: Herring testis DNA, 6.6 μM ATP, 0.1 mM GTP, 37° C. 20 minutes. The method, then:
Expression and Purification of Recombinant cGAS Protein: cDNA encoding full-length or amino acids 147-520 of human cGAS was inserted into a modified pET28a vector containing an in-frame His6-SUMO tag. The E. coli strain BL21/pLys harboring the plasmid was induced with 0.5 mM IPTG at 18° C. overnight. His6-SUMO tag was removed by a SUMO protease digestion following purification of the His6-SUMO-cGAS as described previously (Sun et al, 2013, Science 339, 786).
In vitro inhibition assay of cGAS activity: A 60 μL mixture containing 20 mM Tris-Cl, pH 7.5, 5 mM MgCl2, 0.2 mg/mL BSA, 0.01 mg/mL Herring testis DNA, 6.6 μM ATP, 0.1 mM GTP, 1.5 μg/mL of recombinant human cGAS (aa147-522) and serial dilutions of a test compound in DMSO is added to a 96-well plate and incubated at 37° C. for 20 minutes. At the end of reaction, 40 μL of KinaseGlo Max (Promega) is added and chemiluminescence was measured with a luminometer. Inhibitory effect of a compound is evaluated by plotting percentage of ATP consumption against logarithm of compound concentrations. IC50 value is calculated using GraphPad Prism 8 (GraphPad Software, Inc.).
The letter codes for cGAS IC50 include: A (<2 μM); B (2-30 μM); C (>30 μM).

In experiment [2] the test system is cGAS activity in reporter THP1 cell line. Description: Cellular assay to measure cGAS activity (ISRE-Gaussia luciferase reporter THP1 cells, ISD transfection). The format is cell-based. Particulars: Homo sapiens, THP-1, 2 μg/mL ISD transfection, 16 hours, luciferase luminescence. The method, then: Cellular assay to measure cGAS activity: Reporter THP1 cell line harboring a gene encoding Gaussia Luciferase under the control of 5 tandem repeats of interferon-stimulated response elements (ISRE) fused to an ISG54 minimal promoter was used to test inhibition of cGAS activity by synthetic compounds in human cells. These cells were plated on 96-well plates at 0.3×10^6/well and incubated with serial dilutions of compounds or DMSO for 5 min, followed by transfection of 2 μg/mL of ISD (Interferon Stimulatory DNA, a 45 bp DNA oligo) or mock transfected using lipofectamine 2000 (Life Technology) method, according to manufacturer's instructions. 16 hours later, 15 μL of the media from each well was transferred to a new plate, 50 μL of solution containing 50 mM Hepes-NaOH, pH 6.5, 50 mM NaCl, 10 mM EDTA, 1 μM of coeleanterazine is added to each well and luminescence is measured immediately. Fold increase in luminescence compared to mock transfection was plotted against concentrations of each compound, and IC50 is calculated using Graphpad. To evaluate the specificity of a compound, the same procedure is performed except that cells are transfected with 2 μg/mL […] or infected with Sendai Virus (SeV) at 50 Unit/mL, which are known to activate the RIG-I-MAVS pathway. A specific inhibitory compound should inhibit interferon induction by DNA but have minimal effect on poly(I:C) or Sendai virus induced interferon reporter gene expression.
The letter codes for cGAS IC50 include: A (<2 μM); B (2-10 μM); C (>10 μM).

Drawing on patent US12091387B2, “Quinoline cGAS antagonist compounds” (IMMUNESENSOR THERAPEUTICS, INC., priority 2022, dated 2024), this text covers IC50 for 8 compounds.

Structures are written as SMILES.

T1 sequence (Q8N884 147-522): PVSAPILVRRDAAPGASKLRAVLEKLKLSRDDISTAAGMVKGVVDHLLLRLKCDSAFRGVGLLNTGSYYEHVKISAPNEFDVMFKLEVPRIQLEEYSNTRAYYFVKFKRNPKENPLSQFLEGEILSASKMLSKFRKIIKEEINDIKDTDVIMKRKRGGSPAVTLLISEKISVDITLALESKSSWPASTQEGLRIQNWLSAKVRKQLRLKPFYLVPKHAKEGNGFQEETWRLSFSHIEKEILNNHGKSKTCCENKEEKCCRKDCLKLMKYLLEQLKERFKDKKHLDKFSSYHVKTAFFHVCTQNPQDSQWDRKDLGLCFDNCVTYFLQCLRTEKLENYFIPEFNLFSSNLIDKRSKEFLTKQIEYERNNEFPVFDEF

On to `COc1cccc(-c2cc(N3CCC[C@H]3COCCC(=O)O)nc3c(Cl)c(Cl)ccc23)c1` [I-912], for which the IC50 in experiment [1] was above 30 µM; in experiment [2], above 10 µM.

Turning to `O=C(O)CCOC[C@@H]1C[C@H](C(F)(F)F)CN1c1cc(-n2cncn2)c2cc(Cl)c(Br)cc2n1` [I-929], the IC50 in experiment [1] and in experiment [2] was below 2 µM in each case.

For `O=C(O)CCOC[C@@H]1CCCN1c1cc(-c2cccc(CO)c2)c2ccc(Cl)c(Cl)c2n1` [I-909], the half-maximal inhibitory concentration (IC50) was above 30 µM in experiment [1] and above 10 µM in experiment [2].

Turning to `O=C(O)CCOC[C@@H]1CCCN1c1cc(-c2ccsc2)c2ccc(Cl)c(Cl)c2n1` [I-905], the IC50 in experiment [1] is above 30 µM; in experiment [2], above 10 µM.

Turning to `O=C(O)CCOC[C@@H]1CCCN1c1cc(-c2ccncc2)c2ccc(Cl)c(Cl)c2n1` [I-916], the IC50 in experiment [1] is above 30 µM; in experiment [2], above 10 µM.

Turning to `O=C(O)CCOC[C@@H]1CCCN1c1cc(-n2cncn2)c2c(Cl)c(Cl)ccc2n1` [I-932], the IC50 in experiment [1] and in experiment [2] was below 2 µM in each case.

Turning to `O=C(O)CCOC[C@@H]1CC2(CC2)CN1c1cc(-n2cncn2)c2cc(Br)c(Cl)c(Cl)c2n1` [I-897], the half-inhibitory concentration (IC50) in experiment [1] and in experiment [2] was below 2 µM each time.

Regarding `Cc1c(Br)ccc2c(-n3cncn3)cc(N3CCC[C@H]3COCCC(=O)O)nc12` [I-894], the IC50 in experiment [1] and in experiment [2] was below 2 µM each time.
